Among the data in patent publication US12157755B2, “CD73 inhibitor, preparation method therefor and application thereof” (Abbisko Therapeutics Co., Ltd., priority 2019, dated 2024) are IC50 values, retold here.

One may read the IC50 as the concentration that gives 50% inhibition.

The target of one test is T1, CD73 (Homo sapiens, UniProt P21589).
T1 construct: purchased R&D systems 5795-EN-010
T1 sequence (P21589 27-547 limits assumed): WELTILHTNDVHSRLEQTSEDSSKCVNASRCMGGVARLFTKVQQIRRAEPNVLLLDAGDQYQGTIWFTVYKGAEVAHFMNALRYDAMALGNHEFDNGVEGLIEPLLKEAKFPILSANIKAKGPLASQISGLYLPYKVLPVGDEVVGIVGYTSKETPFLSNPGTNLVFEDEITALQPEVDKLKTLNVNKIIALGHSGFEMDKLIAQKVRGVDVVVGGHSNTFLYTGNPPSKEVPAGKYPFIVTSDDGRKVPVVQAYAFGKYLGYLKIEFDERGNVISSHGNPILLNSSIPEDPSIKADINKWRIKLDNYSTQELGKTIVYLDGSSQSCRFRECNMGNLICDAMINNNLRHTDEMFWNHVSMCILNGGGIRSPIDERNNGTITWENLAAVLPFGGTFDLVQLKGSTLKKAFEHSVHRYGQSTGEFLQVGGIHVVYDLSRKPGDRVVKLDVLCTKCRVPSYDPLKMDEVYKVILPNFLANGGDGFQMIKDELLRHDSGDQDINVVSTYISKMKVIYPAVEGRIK
Put plainly: In vitro enzymatic activity against CD73 (malachite green test using soluble CD73). The test is classed as biochemical. Conditions: soluble CD73 36 ng/mL, 50 μM AMP, 30 minutes at 25° C. The method in brief: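 Soluble recombinant CD73 (36 ng/mL) incubated with compound and 50 μM AMP for 30 min at 25 °C in 25 mM Tris pH 7.5, 5 mM MgCl2, 0.005% Tween-20. Released inorganic phosphate read by malachite green; IC50 from non-linear regression of % inhibition.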

Test [1] has as its target T2, CD73 enzymatic activity expressed on the cell surface of MDA-MB-231 cells (Homo sapiens, UniProt P21589).
T2 construct: Human breast cancer cells MDA-MB-231 that endogenously express CD73 were used; host or cells: MDA-MB-231
T2 sequence (P21589 27-549): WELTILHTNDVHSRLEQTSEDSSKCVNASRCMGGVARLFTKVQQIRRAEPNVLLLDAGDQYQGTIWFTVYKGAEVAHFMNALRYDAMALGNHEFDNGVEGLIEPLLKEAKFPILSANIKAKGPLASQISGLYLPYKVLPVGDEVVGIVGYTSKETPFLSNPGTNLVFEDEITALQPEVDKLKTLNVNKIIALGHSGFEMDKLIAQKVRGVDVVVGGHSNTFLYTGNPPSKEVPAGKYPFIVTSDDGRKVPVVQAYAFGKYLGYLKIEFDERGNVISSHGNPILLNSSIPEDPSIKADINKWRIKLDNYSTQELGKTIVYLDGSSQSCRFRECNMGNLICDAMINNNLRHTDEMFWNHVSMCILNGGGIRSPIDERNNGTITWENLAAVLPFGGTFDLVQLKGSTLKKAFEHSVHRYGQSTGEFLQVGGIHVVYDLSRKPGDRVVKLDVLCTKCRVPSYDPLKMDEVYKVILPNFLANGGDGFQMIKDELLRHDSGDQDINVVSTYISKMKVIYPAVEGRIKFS
Put plainly: Inhibition of CD73 enzymatic activity on the cell surface (Cell Titer Glo (CTG) experiment), MDA-MB-231 cells. It is filed as cell-based. The note with it: MDA-MB-231 cells endogenously expressing CD73, AMP, 37° C. for 2 hours, CTG readout; read-out: Cellular activity IC50. The method in brief: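 MDA-MB-231 cells with endogenous CD73 were washed serum-free, preincubated with compound for 15 min, then given AMP (1.2 mM stock) for 2 h at 37° C. Remaining AMP in the supernatant was read by CellTiter-Glo with added ATP. IC50 came from a four-parameter logistic fit.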
(In ATP-based viability assays light output follows the ATP content of the culture.)

Molecules are shown by their SMILES.

As for `O=P(O)(O)CP(=O)(O)OC[C@H]1C[C@@H](c2ccc3c(N[C@@H]4CCc5cc(Cl)ccc54)nc(Cl)nn23)[C@H](O)[C@@H]1O` [Example 38, (((((1R,2R,3S,4S)-4-(2-chloro-4-(((R)-5-chloro-2,3-dihydro-1H-inden-1-yl)amino)pyrrolo[2,1-f][1,2,4]triazin-7-yl)-2,3-dihydroxycyclopentyl)methoxy)(hydroxy)phosphoryl)methyl)phosphonic acid], the IC50 at CD73 came to 7.8 nM; in test [1], 0.266 nM.

As to `C[C@@H](Nc1cc(Cl)nc2c1cnn2[C@@H]1O[C@H](COP(=O)(O)CP(=O)(O)O)[C@@H](O)[C@H]1O)c1ccc(S(F)(F)(F)(F)F)cc1F` [Example 11, (((((2R,3S,4R,5R)-5-(6-chloro-4-(((R)-1-(2-fluoro-4-(pentafluoro-λ^6-sulfanyl)phenyl)ethyl)amino)-1H-pyrazolo[3,4-b]pyridin-1-yl)-3,4-dihydroxytetrahydrofuran-2-yl)methoxy)(hydroxy)phosphoryl)methyl) phosphonic acid], the IC50 turned out to be 31.6 nM on CD73 and 0.99 nM in test [1].

For the compound `O=P(O)(O)CP(=O)(O)OC[C@H]1C[C@@H](c2ccc3c(N[C@@H]4CCc5ccc(F)cc54)nc(Cl)nn23)[C@H](O)[C@@H]1O` [Example 30, (((((1R,2R,3S,4S)-4-(2-chloro-4-(((R)-6-fluoro-2,3-dihydro-1H-inden-1-yl)amino)pyrrolo[2,1-f][1,2,4]triazin-7-yl)-2,3-dihydroxycyclopentyl)methoxy)(hydroxy)phosphoryl)methyl)phosphonic acid], the values for the IC50 (at CD73; in test [1]) were 3.4 nM and 0.19 nM, respectively.
